Laboratory results reported in patent US20250213646A1, “BIOACTIVE WALNUT PEPTIDES AND COMPOSITIONS FOR TREATING SKIN” (L'OREAL, priority 2024, published 2025).

Key:
Type in all cases: cell-based
[1] = tested on: normal human skin samples; test: Ex vivo chronic inflammation model (CSC): H&E histology; details: 500 μM of each peptide; cell stimulation cocktail (CSC); 7-day culture; human skin explants
Description: Fresh post-abdominoplasty normal human skin samples were acquired from BioIVT Inc. (Westbury, NY). Tissue was defatted and cleaned of blood residue. 1.2 cm diameter skin biopsies were created and cultured at the air-liquid interface. Skin explants not subjected to the inflammatory stimulant served as the untreated control group. Control samples were cultured in Dulbecco's Modified Eagle's Medium (650 μL per well, DMEM with 10% fetal bovine serum and 1% penicillin-streptomycin) at 37° C. and 5% CO2. Treated microneedle samples with the peptides were cultured in DMEM with 10% fetal bovine serum, 1% penicillin-streptomycin with a 2× dilution of cell stimulation cocktail (CSC) 500×. Samples treated with the peptide contained 500 μM of each peptide dissolved into the media. Fresh stimulants were made each time replenishing the treatment medium every other day with the exception of weekends. Following a 7-day culture period, all biopsies were processed for histological and immunohistochemical analysis. Skin explants were processed for hematoxylin and eosin (H&E) staining and immunohistochemical staining against filaggrin (FLG) and transglutaminase 1 (TGM1) according to standard protocol (HistoWiz, Brooklyn, NY).

[2] = tested on: Adult Normal Human Epidermal Keratinocytes; test: Differential gene expression (RNA sequencing) in keratinocytes treated with walnut peptides; details: 100 uM or 500 uM peptide in culture media
Description: Peptide I, II, and III were investigated for their ability to influence gene expression at concentration at 100 μM abd 500 μM for cells and 250 μM for reconstructed human epidermis (RHE).
Adult Normal Human Epidermal Keratinocytes (Lot 80819221, Passage 3, ATCC) were expanded and seeded into a 6-well plate at a density of 300,000 cells/well. Cells were grown in Dermal Cell Basal Medium (ATCC PCS-200-030) supplemented with one Keratinocyte Growth Kit (ATCC PCS-200-040). Cells attached overnight and then culture media was aspirated and replaced with media containing either 100 uM or 500 uM of Peptide I, Peptide II, or Peptide III. Cells were cultured for […] with treatment with renewal of treatment medium every other day with the exception of weekends. Following the 7-day incubation period, cells were trypsinized and the cell pellet was snap-frozen using liquid nitrogen. Cells then underwent RNA sequencing. The log 2 fold change for each treatment group compared to untreated control samples for differentially expressed genes (DEGs) related to skin barrier were analyzed. Fold change was plotted via heatmap to show upregulation or downregulation of these genes. Microsoft Excel and GraphPad Prism were used for additional analysis and data presentation. The results are shown in the heatmap of FIG. 1.

[3] = tested on: filaggrin (FLG); test: Barrier renewal, microneedle ex vivo skin model: filaggrin immunohistochemistry; details: 500 μM of each peptide in media; 7-day culture; microneedled human skin explants
Text: (§1) Fresh post-abdominoplasty normal human skin samples were acquired from BioIVT Inc. (Westbury, NY). Tissue was defatted and cleaned of blood residue. Tissue was then subjected to treatment using a microneedling pen (36-pin needles, Dr. Pen A6 Cartridges Tips, Dr. Pen Inc., San Jose, CA, USA) with a needle length of 1.5 mm. Tissue was subjected to 5 passes of the microneedle. Following treatment, 1.2 cm diameter skin biopsies were created and cultured at the air-liquid interface. Skin explants not subjected to microneedling served as the untreated control group. Control and microneedle control samples were cultured in Dulbecco's Modified Eagle's Medium (650 μL per well, DMEM with 10% fetal bovine serum and 1% penicillin-streptomycin) at 37° C. and 5% CO2. Treated microneedle samples with the peptides were cultured in DMEM with 10% fetal bovine serum, 1% penicillin-streptomycin. 500 uM of each peptide was dissolved into the media. Treatment medium was changed every other day with the exception of weekends. Following a 7-day culture period, all biopsies were processed for histological and immunohistochemical analysis. Skin explants were processed for hematoxylin and eosin (H&E) staining and immunohistochemical staining against filaggrin (FLG) and transglutaminase 1 (TGM1) according to standard protocol (HistoWiz, Brooklyn, NY).

[4] = tested on: transglutaminase 1 (TGM1); test: Barrier renewal, microneedle ex vivo skin model: TGM1 immunohistochemistry; details: 500 μM of each peptide in media; 7-day culture; microneedled human skin explants
Text: as §1

Row | Substance | epidermal stress, spongiosis/vacuole formation induced by CSC (H&E histology, FIG. 4) [1] | differentially expressed genes (DEGs) related to skin barrier, log 2 fold change compared to untreated control (FIG. 1) [2] | filaggrin expression after microneedling [3] | expression and localization of TGM1 after microneedling [4]
1 | Lys-Val-Pro-Pro-Leu-Leu-Tyr (KVPPLLY) (printed: Lys-Val-Pro-Pro-Leu-Leu-Tyr) [Peptide III] | ameliorated | strong benefits to the skin barrier on a cellular level at both concentrations tested | increase filaggrin expression | increase the expression of TGM1 and localization
2 | Thr-Trp-Leu-Pro-Leu-Pro-Arg (TWLPLPR) (printed: Thr-Trp-Leu-Pro-Leu-Pro-Arg) [Peptide I] | ameliorated | showed an influence at the higher concentration | increase filaggrin expression | increase the expression of TGM1 and localization
3 | Tyr-Val-Leu-Leu-Pro-Ser-Pro-Lys (YVLLPSPK) (printed: Tyr-Val-Leu-Leu-Pro-Ser-Pro-Lys) [Peptide II] | ameliorated | strong benefits to the skin barrier on a cellular level at both concentrations tested | increase filaggrin expression | increase the expression of TGM1 and localization
